Earlier results as cited in patent publication EP2738198A1, “Enzymatic synthesis of polyamide in aqueous mini-emulsion” (Henkel AG & Co. KGaA, priority 2012, dated 2014).

details: alcohol CnH2n+1OH corresponding to the alkyl group of the di(alkyl) sebacate, data from Handbook of Chemistry and Physics 86th Edition

| Partial Solubility of CnH2n+1OH in water | Compound |
| --- | --- |
| ∞ | CCO [n 2] |
| 7900 µg/mL | CCCCCCO [n 6] |
| 300 µg/mL | CCCCCCCCO [n 8] |
